{"source": "ChEMBL document CHEMBL5038588", "about": "(J Med Chem, 2021)", "key": {"[1]": {"test": "Half life in ICR mouse at 5 mg/kg, iv measured upto 24 hrs by LC/MS/MS analysis", "assay_type": "ADME, organism-based", "details": "in vivo"}, "[2]": {"test": "Tmax in ICR mouse at 5 mg/kg, iv measured upto 24 hrs by LC/MS/MS analysis", "assay_type": "ADME, organism-based", "details": "in vivo"}, "[3]": {"biological_target": "Voltage-gated inwardly rectifying potassium channel KCNH2 (Homo sapiens, UniProt Q12809)", "sequence (Q12809 whole entry)": "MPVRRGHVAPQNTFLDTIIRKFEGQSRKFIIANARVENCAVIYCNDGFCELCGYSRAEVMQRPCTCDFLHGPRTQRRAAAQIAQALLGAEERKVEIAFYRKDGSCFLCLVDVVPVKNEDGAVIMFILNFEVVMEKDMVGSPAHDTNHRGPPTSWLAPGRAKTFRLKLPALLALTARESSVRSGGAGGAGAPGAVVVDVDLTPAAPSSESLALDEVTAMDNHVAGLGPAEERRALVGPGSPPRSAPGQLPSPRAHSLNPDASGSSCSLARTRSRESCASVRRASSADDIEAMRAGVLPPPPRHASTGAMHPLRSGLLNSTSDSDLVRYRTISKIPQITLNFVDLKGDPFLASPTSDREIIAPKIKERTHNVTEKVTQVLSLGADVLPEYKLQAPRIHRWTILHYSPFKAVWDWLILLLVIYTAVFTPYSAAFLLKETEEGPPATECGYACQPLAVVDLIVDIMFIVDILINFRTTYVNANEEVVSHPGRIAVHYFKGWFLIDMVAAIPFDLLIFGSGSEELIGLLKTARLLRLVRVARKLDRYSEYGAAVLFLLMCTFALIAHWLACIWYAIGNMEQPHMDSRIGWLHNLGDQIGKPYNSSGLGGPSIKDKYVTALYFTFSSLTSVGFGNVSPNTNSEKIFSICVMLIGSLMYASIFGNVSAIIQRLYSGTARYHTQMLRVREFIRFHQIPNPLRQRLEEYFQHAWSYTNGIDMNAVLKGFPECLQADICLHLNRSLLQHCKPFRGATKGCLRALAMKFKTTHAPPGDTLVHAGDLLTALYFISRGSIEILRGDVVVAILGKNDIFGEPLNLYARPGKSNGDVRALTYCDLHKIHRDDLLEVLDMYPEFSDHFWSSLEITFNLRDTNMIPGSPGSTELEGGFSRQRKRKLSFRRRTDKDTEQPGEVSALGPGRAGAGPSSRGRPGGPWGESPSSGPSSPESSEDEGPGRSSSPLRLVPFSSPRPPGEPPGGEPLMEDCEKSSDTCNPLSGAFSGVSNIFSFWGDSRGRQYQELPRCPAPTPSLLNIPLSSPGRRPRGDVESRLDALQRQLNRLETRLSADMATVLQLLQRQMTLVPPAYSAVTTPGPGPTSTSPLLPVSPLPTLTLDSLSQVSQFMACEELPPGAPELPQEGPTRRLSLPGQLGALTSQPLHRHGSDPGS", "test": "Inhibition of hERG", "assay_type": "toxicity"}, "[4]": {"test": "Tmax in ICR mouse at 15 mg/kg, po measured upto 24 hrs by LC/MS/MS analysis", "assay_type": "ADME, organism-based", "details": "in vivo"}, "[5]": {"test": "AUC (0 to t) in ICR mouse at 5 mg/kg, iv measured upto 24 hrs by LC/MS/MS analysis", "assay_type": "ADME, organism-based", "parameters": "route intravenous, dose 5 mg/kg, time <=24", "details": "in vivo"}, "[6]": {"test": "AUC (0 to infinity) in ICR mouse at 15 mg/kg, po measured upto 24 hrs by LC/MS/MS analysis", "assay_type": "ADME, organism-based", "parameters": "route oral, dose 15 mg/kg, time <=24", "details": "in vivo"}, "[7]": {"test": "Oral bioavailability in ICR mouse at 15 mg/kg measured upto 24 hrs by LC/MS/MS analysis", "assay_type": "ADME, organism-based", "details": "in vivo"}, "[8]": {"test": "Cmax in ICR mouse at 15 mg/kg, po measured upto 24 hrs by LC/MS/MS analysis", "assay_type": "ADME, organism-based", "parameters": "route oral, dose 15 mg/kg, time <=24", "details": "in vivo"}, "Salmonella typhimurium [9]": {"system": "Salmonella typhimurium", "test": "Mutagenecity in Salmonella typhimurium TA102 at 0.5 to 312.5 ug/ml incubated for 42 to 72 hrs in presence of S9 fraction by Ames test", "assay_type": "toxicity, organism-based", "details": "salmonella enterica subsp. enterica serovar typhimurium, dose lower 0.5 µg/ml, time lower 42 hrs, dose upper 312.5 µg/ml, time upper 72 hrs"}, "Salmonella typhimurium [10]": {"system": "Salmonella typhimurium", "test": "Mutagenecity in Salmonella typhimurium TA97a at 0.5 to 312.5 ug/ml incubated for 42 to 72 hrs in presence of S9 fraction by Ames test", "assay_type": "toxicity, organism-based", "details": "salmonella enterica subsp. enterica serovar typhimurium, dose lower 0.5 µg/ml, time lower 42 hrs, dose upper 312.5 µg/ml, time upper 72 hrs"}, "[11]": {"test": "Genotoxicity in ICR mouse bone marrow at 25 to 100 mg/kg administered via oral gavage and measured after 24 to 48 hrs by micronucleus assay", "assay_type": "toxicity, organism-based", "details": "in vivo, dose lower 25 mg/kg, time lower 24 hrs, dose upper 100 mg/kg, time upper 48 hrs"}, "[12]": {"test": "Cmax in ICR mouse at 5 mg/kg, iv measured upto 24 hrs by LC/MS/MS analysis", "assay_type": "ADME, organism-based", "parameters": "route intravenous, dose 5 mg/kg, time <=24", "details": "in vivo"}, "[13]": {"test": "AUC (0 to t) in ICR mouse at 15 mg/kg, po measured upto 24 hrs by LC/MS/MS analysis", "assay_type": "ADME, organism-based", "parameters": "route oral, dose 15 mg/kg, time <=24", "details": "in vivo"}, "[14]": {"test": "Volume of distribution at steady state in ICR mouse at 5 mg/kg, iv measured upto 24 hrs by LC/MS/MS analysis", "assay_type": "ADME, organism-based", "details": "in vivo, read-out: Vdss"}, "[15]": {"biological_target": "Vascular endothelial growth factor receptor 2 (Homo sapiens, UniProt P35968)", "sequence (P35968 whole entry)": "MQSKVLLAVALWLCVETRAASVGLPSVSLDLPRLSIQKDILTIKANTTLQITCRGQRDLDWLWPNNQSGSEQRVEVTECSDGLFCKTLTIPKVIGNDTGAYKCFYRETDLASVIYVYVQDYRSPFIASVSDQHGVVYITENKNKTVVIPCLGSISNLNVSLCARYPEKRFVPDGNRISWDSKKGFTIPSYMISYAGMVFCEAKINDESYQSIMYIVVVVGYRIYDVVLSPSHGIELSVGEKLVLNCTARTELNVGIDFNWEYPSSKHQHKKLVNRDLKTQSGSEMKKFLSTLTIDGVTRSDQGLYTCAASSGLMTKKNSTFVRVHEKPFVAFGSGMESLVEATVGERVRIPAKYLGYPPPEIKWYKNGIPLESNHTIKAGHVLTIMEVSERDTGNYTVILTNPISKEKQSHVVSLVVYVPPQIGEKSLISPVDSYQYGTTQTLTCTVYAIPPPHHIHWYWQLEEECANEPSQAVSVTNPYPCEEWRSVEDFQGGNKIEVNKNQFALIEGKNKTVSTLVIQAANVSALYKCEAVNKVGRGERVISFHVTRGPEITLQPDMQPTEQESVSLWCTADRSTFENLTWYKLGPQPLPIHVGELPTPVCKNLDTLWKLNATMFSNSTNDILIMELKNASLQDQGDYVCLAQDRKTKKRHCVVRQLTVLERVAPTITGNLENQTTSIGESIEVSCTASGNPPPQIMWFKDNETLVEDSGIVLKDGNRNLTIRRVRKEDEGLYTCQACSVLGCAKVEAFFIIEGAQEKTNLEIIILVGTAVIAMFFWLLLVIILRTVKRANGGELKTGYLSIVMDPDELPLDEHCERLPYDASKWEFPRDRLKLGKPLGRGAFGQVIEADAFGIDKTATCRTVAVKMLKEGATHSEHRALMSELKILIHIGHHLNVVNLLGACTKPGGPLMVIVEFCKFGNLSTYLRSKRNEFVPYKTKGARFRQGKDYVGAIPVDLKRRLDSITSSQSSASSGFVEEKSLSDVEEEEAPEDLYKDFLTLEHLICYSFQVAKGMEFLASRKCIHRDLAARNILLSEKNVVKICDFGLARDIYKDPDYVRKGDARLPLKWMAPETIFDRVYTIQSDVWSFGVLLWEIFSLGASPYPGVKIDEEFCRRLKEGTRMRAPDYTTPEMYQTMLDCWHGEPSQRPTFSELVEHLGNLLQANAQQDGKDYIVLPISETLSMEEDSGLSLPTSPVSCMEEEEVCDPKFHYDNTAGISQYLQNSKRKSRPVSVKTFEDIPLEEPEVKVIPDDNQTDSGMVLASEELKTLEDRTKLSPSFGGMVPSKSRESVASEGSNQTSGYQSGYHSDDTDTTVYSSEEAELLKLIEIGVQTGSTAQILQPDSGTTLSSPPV", "test": "Inhibition of human KDR/VEGFR2 using poly [Glu:Tyr] as substrate incubated for 30 mins followed by 33P-ATP addition and measured after 2 hrs by liquid scintillation counter method"}, "[16]": {"test": "Half life in ICR mouse at 15 mg/kg, po measured upto 24 hrs by LC/MS/MS analysis", "assay_type": "ADME, organism-based", "details": "in vivo"}, "[17]": {"test": "MRT in ICR mouse at 15 mg/kg, po measured upto 24 hrs by LC/MS/MS analysis", "assay_type": "ADME, organism-based", "details": "in vivo"}, "[18]": {"test": "AUC (0 to infinity) in ICR mouse at 5 mg/kg, iv measured upto 24 hrs by LC/MS/MS analysis", "assay_type": "ADME, organism-based", "parameters": "route intravenous, dose 5 mg/kg, time <=24", "details": "in vivo"}, "[19]": {"test": "MRT in ICR mouse at 5 mg/kg, iv measured upto 24 hrs by LC/MS/MS analysis", "assay_type": "ADME, organism-based", "details": "in vivo"}, "Salmonella typhimurium [20]": {"system": "Salmonella typhimurium", "test": "Mutagenecity in Salmonella typhimurium TA100 at 0.5 to 312.5 ug/ml incubated for 42 to 72 hrs in presence of S9 fraction by Ames test", "assay_type": "toxicity, organism-based", "details": "salmonella enterica subsp. enterica serovar typhimurium, dose lower 0.5 µg/ml, time lower 42 hrs, dose upper 312.5 µg/ml, time upper 72 hrs"}, "[21]": {"test": "Clearance in ICR mouse at 5 mg/kg, iv measured upto 24 hrs by LC/MS/MS analysis", "assay_type": "ADME, organism-based", "details": "in vivo"}, "[22]": {"biological_target": "Tyrosine-protein kinase Lyn (Homo sapiens, UniProt P07948)", "sequence (P07948 whole entry)": "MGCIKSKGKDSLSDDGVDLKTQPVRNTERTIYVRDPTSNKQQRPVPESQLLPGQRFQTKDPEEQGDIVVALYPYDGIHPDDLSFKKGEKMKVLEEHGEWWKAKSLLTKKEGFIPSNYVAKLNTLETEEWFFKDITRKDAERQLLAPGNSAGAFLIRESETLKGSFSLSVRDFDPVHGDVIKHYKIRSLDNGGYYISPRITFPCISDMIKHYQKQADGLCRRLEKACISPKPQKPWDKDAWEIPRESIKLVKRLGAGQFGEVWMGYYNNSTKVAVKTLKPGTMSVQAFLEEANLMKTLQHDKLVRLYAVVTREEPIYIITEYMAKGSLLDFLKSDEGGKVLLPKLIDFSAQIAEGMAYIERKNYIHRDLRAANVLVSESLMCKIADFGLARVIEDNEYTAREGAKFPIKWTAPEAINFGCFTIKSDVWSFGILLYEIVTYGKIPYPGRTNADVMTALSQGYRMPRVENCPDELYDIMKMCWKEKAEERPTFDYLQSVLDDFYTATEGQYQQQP", "test": "Inhibition of human LYN using poly [Glu:Tyr] as substrate incubated for 30 mins followed by 33P-ATP addition and measured after 2 hrs by liquid scintillation counter method"}, "[23]": {"biological_target": "Platelet-derived growth factor receptor alpha (Homo sapiens, UniProt P16234)", "sequence (P16234 whole entry)": "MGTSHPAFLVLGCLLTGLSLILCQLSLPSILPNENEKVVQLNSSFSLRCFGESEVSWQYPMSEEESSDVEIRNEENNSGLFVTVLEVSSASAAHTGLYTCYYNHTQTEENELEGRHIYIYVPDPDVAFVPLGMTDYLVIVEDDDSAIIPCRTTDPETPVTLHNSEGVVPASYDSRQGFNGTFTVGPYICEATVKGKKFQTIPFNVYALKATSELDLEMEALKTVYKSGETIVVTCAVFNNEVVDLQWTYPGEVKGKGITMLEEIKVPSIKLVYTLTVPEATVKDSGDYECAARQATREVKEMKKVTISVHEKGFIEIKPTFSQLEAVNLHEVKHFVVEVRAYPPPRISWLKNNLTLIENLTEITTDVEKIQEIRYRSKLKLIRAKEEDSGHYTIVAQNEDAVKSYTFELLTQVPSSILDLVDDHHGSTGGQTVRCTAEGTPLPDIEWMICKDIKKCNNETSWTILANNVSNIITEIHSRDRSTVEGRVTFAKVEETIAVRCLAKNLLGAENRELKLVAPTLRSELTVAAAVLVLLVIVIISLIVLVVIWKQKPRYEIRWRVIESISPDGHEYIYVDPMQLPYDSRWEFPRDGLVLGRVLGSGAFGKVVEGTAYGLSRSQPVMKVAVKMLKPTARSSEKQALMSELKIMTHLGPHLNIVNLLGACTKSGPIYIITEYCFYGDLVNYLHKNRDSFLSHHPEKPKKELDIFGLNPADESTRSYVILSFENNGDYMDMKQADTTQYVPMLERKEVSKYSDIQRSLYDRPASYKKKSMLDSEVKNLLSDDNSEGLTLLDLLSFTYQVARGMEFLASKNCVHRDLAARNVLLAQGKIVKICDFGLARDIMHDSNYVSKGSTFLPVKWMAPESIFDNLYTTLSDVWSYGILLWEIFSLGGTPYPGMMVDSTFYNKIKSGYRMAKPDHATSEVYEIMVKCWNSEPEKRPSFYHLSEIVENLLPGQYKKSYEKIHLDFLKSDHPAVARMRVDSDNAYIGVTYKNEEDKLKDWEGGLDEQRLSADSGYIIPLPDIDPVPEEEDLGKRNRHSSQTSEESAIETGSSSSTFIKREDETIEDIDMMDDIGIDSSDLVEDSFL", "test": "Inhibition of human PDGFRa using poly [Glu:Tyr] as substrate incubated for 30 mins followed by 33P-ATP addition and measured after 2 hrs by liquid scintillation counter method"}, "[24]": {"test": "Toxicity in ICR mouse assessed as maximum tolerated dose administered as single oral dose for 14 days", "details": "in vivo, time 14 day"}, "[25]": {"biological_target": "T1, Receptor-type tyrosine-protein kinase FLT3 (Homo sapiens, UniProt P36888)", "T1 sequence (P36888 whole entry)": "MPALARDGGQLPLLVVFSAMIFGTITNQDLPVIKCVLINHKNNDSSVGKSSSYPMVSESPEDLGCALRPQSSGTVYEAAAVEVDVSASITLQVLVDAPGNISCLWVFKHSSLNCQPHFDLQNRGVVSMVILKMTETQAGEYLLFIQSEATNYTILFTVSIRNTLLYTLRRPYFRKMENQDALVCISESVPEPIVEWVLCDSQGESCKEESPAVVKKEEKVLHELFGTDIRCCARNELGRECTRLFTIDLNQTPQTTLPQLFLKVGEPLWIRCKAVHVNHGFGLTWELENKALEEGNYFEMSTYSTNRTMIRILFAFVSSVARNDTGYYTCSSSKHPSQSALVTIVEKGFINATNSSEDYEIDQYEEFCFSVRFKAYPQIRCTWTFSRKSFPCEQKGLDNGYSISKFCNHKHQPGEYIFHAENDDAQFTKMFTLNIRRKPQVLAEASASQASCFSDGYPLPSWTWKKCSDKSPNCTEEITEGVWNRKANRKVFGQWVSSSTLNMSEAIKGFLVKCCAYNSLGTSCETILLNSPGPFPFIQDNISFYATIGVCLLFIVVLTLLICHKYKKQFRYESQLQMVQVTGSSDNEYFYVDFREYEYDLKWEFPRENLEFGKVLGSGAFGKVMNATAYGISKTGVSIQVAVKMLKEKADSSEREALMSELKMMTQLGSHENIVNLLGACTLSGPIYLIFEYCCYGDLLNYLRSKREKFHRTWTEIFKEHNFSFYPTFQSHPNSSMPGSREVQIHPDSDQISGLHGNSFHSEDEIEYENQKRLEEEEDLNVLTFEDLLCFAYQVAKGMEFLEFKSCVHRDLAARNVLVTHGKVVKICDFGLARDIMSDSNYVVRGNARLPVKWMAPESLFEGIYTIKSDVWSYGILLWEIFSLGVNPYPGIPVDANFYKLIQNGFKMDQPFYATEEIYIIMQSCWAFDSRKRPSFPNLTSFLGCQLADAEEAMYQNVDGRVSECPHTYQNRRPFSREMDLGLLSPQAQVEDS", "test": "Inhibition of human FLT3 using EAIYAAPFAKKK as substrate incubated for 30 mins followed by 33P-ATP addition and measured after 2 hrs by liquid scintillation counter method"}, "[26]": {"biological_target": "Proto-oncogene tyrosine-protein kinase Src (Homo sapiens, UniProt P12931)", "sequence (P12931 2-536 limits assumed)": "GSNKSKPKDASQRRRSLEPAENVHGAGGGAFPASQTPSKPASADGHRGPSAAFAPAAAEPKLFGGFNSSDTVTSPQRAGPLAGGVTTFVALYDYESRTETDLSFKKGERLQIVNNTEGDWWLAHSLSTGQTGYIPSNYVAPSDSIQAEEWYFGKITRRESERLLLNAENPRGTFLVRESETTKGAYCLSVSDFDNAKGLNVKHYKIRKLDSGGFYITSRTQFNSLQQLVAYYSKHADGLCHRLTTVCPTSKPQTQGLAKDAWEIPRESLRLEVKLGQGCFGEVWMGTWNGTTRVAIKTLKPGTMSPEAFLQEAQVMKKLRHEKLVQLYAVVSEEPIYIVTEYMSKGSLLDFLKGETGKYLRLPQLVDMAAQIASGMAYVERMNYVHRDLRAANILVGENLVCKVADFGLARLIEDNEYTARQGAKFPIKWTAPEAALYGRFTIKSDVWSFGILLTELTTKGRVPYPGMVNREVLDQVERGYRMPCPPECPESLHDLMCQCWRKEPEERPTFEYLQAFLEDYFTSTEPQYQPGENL", "test": "Inhibition of human c-SRC using poly [Glu:Tyr] as substrate incubated for 30 mins followed by 33P-ATP addition and measured after 2 hrs by liquid scintillation counter method"}, "Salmonella typhimurium [27]": {"system": "Salmonella typhimurium", "test": "Mutagenecity in Salmonella typhimurium TA1535 at 0.5 to 312.5 ug/ml incubated for 42 to 72 hrs in presence of S9 fraction by Ames test", "assay_type": "toxicity, organism-based", "details": "salmonella enterica subsp. enterica serovar typhimurium, dose lower 0.5 µg/ml, time lower 42 hrs, dose upper 312.5 µg/ml, time upper 72 hrs"}, "Salmonella typhimurium [28]": {"system": "Salmonella typhimurium", "test": "Mutagenecity in Salmonella typhimurium TA98 at 0.5 to 312.5 ug/ml incubated for 42 to 72 hrs in presence of S9 fraction by Ames test", "assay_type": "toxicity, organism-based", "details": "salmonella enterica subsp. enterica serovar typhimurium, dose lower 0.5 µg/ml, time lower 42 hrs, dose upper 312.5 µg/ml, time upper 72 hrs"}}}
{"smiles": "Cc1ccc(C(=O)Nc2ccc3c(c2)C(F)(F)C[C@@H]3N2CCN(C)CC2)cc1C#Cc1cnc2cccnn12", "values": [{"measurement": "half-life", "setting": "[1]", "result": 5.3, "unit": "h"}, {"measurement": "Tmax", "setting": "[2]", "result": 4.8, "unit": "min"}, {"measurement": "IC50", "setting": "[3]", "result": 11100, "unit": "nM"}, {"measurement": "Tmax", "setting": "[4]", "result": 5, "unit": "h"}, {"measurement": "AUC(0-t) at 24 h", "setting": "[5]", "result": 1390, "unit": "ng·h/mL"}, {"measurement": "AUC(0-inf)", "setting": "[6]", "result": 1440, "unit": "ng·h/mL"}, {"measurement": "bioavailability", "setting": "[7]", "result": 32, "unit": "%"}, {"measurement": "Cmax", "setting": "[8]", "result": 129, "unit": "ng/mL"}, {"measurement": "Activity", "setting": "Salmonella typhimurium [9]", "result": "Non-Toxic"}, {"measurement": "Activity", "setting": "Salmonella typhimurium [10]", "result": "Non-Toxic"}, {"measurement": "Activity", "setting": "[11]", "result": "Non-Toxic"}, {"measurement": "Cmax", "setting": "[12]", "result": 1470, "unit": "ng/mL"}, {"measurement": "AUC(0-t) at 24 h", "setting": "[13]", "result": 1390, "unit": "ng·h/mL"}, {"measurement": "Vd", "setting": "[14]", "result": 18.1, "unit": "L/kg"}, {"measurement": "IC50", "setting": "[15]", "result": "< 10", "unit": "nM"}, {"measurement": "half-life", "setting": "[16]", "result": 4.61, "unit": "h"}, {"measurement": "MRT", "setting": "[17]", "result": 8.22, "unit": "h"}, {"measurement": "AUC(0-inf)", "setting": "[18]", "result": 1500, "unit": "ng·h/mL"}, {"measurement": "MRT", "setting": "[19]", "result": 5.11, "unit": "h"}, {"measurement": "Activity", "setting": "Salmonella typhimurium [20]", "result": "Non-Toxic"}, {"measurement": "clearance", "setting": "[21]", "result": 62, "unit": "mL/min/kg"}, {"measurement": "IC50", "setting": "[22]", "result": "< 10", "unit": "nM"}, {"measurement": "IC50", "setting": "[23]", "result": "< 10", "unit": "nM"}, {"measurement": "MTD at 336 h", "setting": "[24]", "result": 100, "unit": "mg/kg"}, {"measurement": "IC50", "setting": "[25]", "result": "< 10", "unit": "nM"}, {"measurement": "IC50", "setting": "[26]", "result": "< 10", "unit": "nM"}, {"measurement": "Activity", "setting": "Salmonella typhimurium [27]", "result": "Non-Toxic"}, {"measurement": "Activity", "setting": "Salmonella typhimurium [28]", "result": "Non-Toxic"}]}
